Reference: patent publication US6008372A, “Substituted dinaphthylmethyl and diheteroarylmethylacetyl histidine inhibitors of protein farnesyltransferase” (Warner-Lambert Company, priority 1998, dated 1999)
Like-named read-outs stand apart in the source and are kept apart here.

What was measured:
[1] = test system: Ras farnesylation in H-ras Me 12/+ cells; test: Gel shift assay: inhibition of Ras farnesylation in H-ras Me 12/+ cells; type: cell-based; settings: 18-hour incubation, read-out: Inhibition of Ras Farnesylation (Minimum Effective Dose)
Experimental: (§1) Twenty-four hours after planting 2×10^6 ras-transformed cells per treatment condition, the farnesylation inhibitor is added at varying concentrations. Following an 18-hour incubation period, cells are lysed in phosphate-buffered saline containing 1% Triton X-100, 0.5% sodium deoxycholate, and 0.1% SDS, pH 7.4 in the presence of several protease inhibitors (PMSF, antipain, leupeptin, pepstatin A, and aprotinin all at 1 μg/mL). Ras protein is immunoprecipitated from the supernatants by the addition of 3 μg v-H-ras Ab-2 (Y13-259 antibody from Oncogene Science). After overnight immunoprecipitation, 30 μL of a 50% protein G-Sepharose slurry (Pharmacia) is added followed by 45-minute incubation. Pellets are resuspended in 2× tris-glycine loading buffer (Novex) containing 5% B-mercaptoethanol and then denatured by 5 minutes boiling prior to electrophoresis on 14% Tris-glycine SDS gels. Using Western transfer techniques, proteins are transferred to nitrocellulose membranes followed by blocking in blocking buffer. Upon overnight incubation with primary antibody (pan-ras Ab-2 from Oncogene Science), an antimouse HRP conjugate secondary antibody (Amersham) is employed for detection of the ras protein. Blots are developed using ECL techniques (Amersham).
(§2) The data in Table 1 show farnesyl protein transferase inhibitory activity, and activity in the gel shift assay against ras protein of selected compounds of Formula I.

[2] = target: T1, rat brain farnesyl protein transferase (Rattus norvegicus, UniProt Q02293+Q04631); test: Protein:farnesyltransferase (PFT/FPT) inhibitory activity assay; type: biochemical
T1 construct: 40-fold purified rat brain farnesyl protein transferase; from tissue; host or cells: rat brain

[3] = test system: Ras farnesylation in H-ras-NIH3T3 cells; test: Gel shift assay: inhibition of Ras farnesylation in H-ras-NIH3T3 cells; type: cell-based; settings: 18-hour incubation, read-out: Inhibition of Ras Farnesylation (Minimum Effective Dose)
Experimental: as §1, §2

[4] = test system: human lung carcinoma with a k-ras mutation; settings: nude mice; cited from earlier work
[5] = Hepes (without 5 mM phosphate), read-out: Farnesyl Protein Transferase Inhibition, Hepes, IC50
[6] = Hepes/5 mM PO4^-3, pH 7.4, read-out: Farnesyl Protein Transferase Inhibition, Hepes/5 mM PO4^-3, IC50

Row | SMILES | minimal effective concentration [1] | IC50 [2, 5] | IC50 [2, 6] | minimal effective concentration [3] | blocks the growth of a human lung carcinoma with a k-ras mutation [4]
1 | COC(=O)[C@H](Cc1c[nH]cn1)NC(=O)C(Cc1cccc2ccccc12)Cc1cccc2ccccc12 [Example 1, (S)-3-(1H-Imidazol-4-yl)-2-(3-naphthalen-1-yl-2-naphthalen-1-ylmethyl-propionylamino)-propionic acid, methyl ester] | 2.5 µM | 260 nM | 300 nM | 5 µM | –
2 | CCOC(=O)[C@H](Cc1c[nH]cn1)NC(=O)C(Cc1cccc2ccccc12)Cc1cccc2ccccc12 [Example 5, (S)-3-(1H-Imidazol-4-yl)-2-(3-naphthalen-1-yl-2-naphthalen-1-ylmethyl-propionylamino)-propionic acid, ethyl ester] | 2.5 µM | 130 nM | 130 nM | – | –
3 | COC(=O)[C@H](Cc1cncn1C)NC(=O)C(Cc1cccc2ccccc12)Cc1cccc2ccccc12 [Example 6, (S)-3-(3-Methyl-3H-imidazol-4-yl)-2-(3-naphthalen-1-yl-2-naphthalen-1-ylmethyl-propionylamino)-propionic acid, methyl ester] | 1 µM | 420 nM | 220 nM | 2.5 µM | –
4 | CCCOC(=O)[C@H](Cc1c[nH]cn1)NC(=O)C(Cc1cccc2ccccc12)Cc1cccc2ccccc12 [Example 7, (S)-3-(1H-Imidazol-4-yl)-2-(3-naphthalen-1-yl-2-naphthalen-1-ylmethyl-propionylamino)-propionic acid, propyl ester] | 5 µM | 110 nM | 100 nM | – | –
5 | CC(C)OC(=O)[C@H](Cc1c[nH]cn1)NC(=O)C(Cc1cccc2ccccc12)Cc1cccc2ccccc12 [Example 8, (S)-3-(1H-Imidazol-4-yl)-2-(3-naphthalen-1-yl-2-naphthalen-1-ylmethyl-propionylamino)-propionic acid, isopropyl ester] | 5 µM | 180 nM | 160 nM | 5 µM | –
6 | O=C(N[C@@H](Cc1c[nH]cn1)C(=O)NCCOCc1ccccc1)C(Cc1cccc2ccccc12)Cc1cccc2ccccc12 [Example 23, (S)-N-[1-(2-Benzyloxy-ethylcarbamoyl)-2-(1H-imidazol-4-yl)-ethyl]-3-naphthalen-1-yl-2-naphthalen-1-ylmethyl-propionamide] | 5 µM | 740 nM | 550 nM | – | –
7 | O=C(N[C@@H](Cc1c[nH]cn1)C(=O)NCCc1c[nH]cn1)C(Cc1cccc2ccccc12)Cc1cccc2ccccc12 [Example 27, (S)-N-{2-(1H-Imidazol-4-yl)-1-[2-(1H-imidazol-4-yl)-ethylcarbamoyl]-ethyl}-3-naphthalen-1-yl-2-naphthalen-1-ylmethyl-propionamide] | 10 µM | 4800 nM | 3900 nM | – | –
8 | CNC(=O)[C@H](Cc1c[nH]cn1)NC(=O)C(Cc1cccc2ccccc12)Cc1cccc2ccccc12 [Example 33, (S)-N-[2-(1H-Imidazol-4-yl)-1-methylcarbamoyl-ethyl]-3-naphthalen-1-yl-2-naphthalen-1-ylmethyl-propionamide] | 1 µM | 610 nM | 440 nM | 1 µM | –
9 | COC(=O)[C@H](Cc1c[nH]cn1)NC(=O)C(CC1CCCC2CCCCC21)CC1CCCC2CCCCC21 (stereo partly drawn) [Example 36, (S)-2-[3-(Decahydro-naphthalen-1-yl)-2-(decahydro-naphthalen-1-ylmethyl)-propionylamino]-3-(1H-imidazol-4-yl)-propionic acid, methyl ester] | 25 µM | 310 nM | 370 nM | – | –
10 | COC(=O)[C@H](Cc1c[nH]cn1)NC(=O)C(Cc1cccc2c1CCCC2)Cc1cccc2c1CCCC2 [Example 37, (S)-3-(1H-Imidazol-4-yl)-2-[3-(5,6,7,8-tetrahydro-naphthalen-1-yl)-2-(5,6,7,8-tetrahydro-naphthalen-1-ylmethyl)-propionylamino]-propionic acid, methyl ester] | 10 µM | 420 nM | 180 nM | – | –
11 | COC(=O)[C@H](Cc1c[nH]cn1)NC(=O)C(Cc1ccccc1)Cc1cccc2ccccc12 (stereo partly drawn) [Example 65, (S)-2-(2-Benzyl-3-naphthalen-1-yl-propionylamino)-3-(1H-imidazol-4-yl)-propionic acid, methyl ester] | – | 1600 nM | 2900 nM | 25 µM | –
12 | CSCC[C@H](NC(=O)c1ccc(NC[C@@H](N)CS)cc1-c1ccccc1)C(=O)O [FTI-276] | – | – | – | – | blocks the growth in nude mice of a human lung carcinoma with a k-ras mutation
